# Data from US10478501B2, “Method of treating disorders using a pharmaceutical composition of oligopeptides” (Merck Patent GmbH, priority 2011, dated 2019).
# Experiments:
# [1] = system: MDA-MB-231 breast cancer bone metastases; experiment: Experimental breast cancer bone metastases in nude rats: volumes of osteolytic lesions and soft tissue components by VCT and MRI; type: in vivo, nude rats (RNU strain); conditions: for Mean relative values of the OL (osteolytic lesion) volumes, increase compared to initial values at day 30 / Mean relative STC (soft tissue component) volume, increase compared to initial values at day 30: 75 mg/kg i.p. five times per week from day 30
# Description: Nude rats (RNU strain) are obtained from Harlan-Winkelmann GmbH (Borchen, Germany) at the age of six weeks and housed in a specific pathogen-free environment in a mini barrier system of the central animal facility. Animals are kept under controlled conditions (21±2° C. room temperature, 60% humidity, 12 h light-dark rhythm) and offered autoclaved food and water ad libitum. Sub-confluent MDAMB-231 cells are harvested using 0.05% Trypsin-EDTA (Gibco®; Invitrogen, Karlsruhe, Germany) counted on a Neubauer's chamber and resuspended in RPMI-1640 to a final concentration of 10^5 cells in 200 μl. Rats are anesthetized using a mixture of nitrous oxide (1 l/min), oxygen (0.5 l/min) and isoflurane (1.5 vol. %). Arterial branches of the right hind leg are dissected and 10^5 cells injected into the superficial epigastric artery as described previously.^28 Bone metastases established and are observed exclusively in the femur, tibia and fibula of the right hind leg. 30 days after cancer cell transplantation, rats (n=24) are randomly divided into two groups, one group receiving the cyclic RGD-peptide inhibitor of αvβ3/αvβ5 integrins (cilengitide, EMD 121974^14, 17, 29; Merck, Darmstadt, Germany) intraperitoneally five times per week (75 mg/kg; n=12 rats) and the other, sham-treated group, serving as a control (n=12 rats). The observation period of all animals is 55 days and no rat in the study dies ahead of schedule.
# After the inoculation of cancer cells each rat is imaged at days 30, 35, 45 and 55 using (i) a flat-panel equipped volumetric computed tomograph (Volume CT, Siemens, Germany) and (ii) a 1.5T clinical magnetic resonance scanner (Symphony, Siemens, Erlangen, Germany) equipped with a home-built receive-transmit coil (cylindrical volume resonator with an inner diameter of 83 mm and a usable length of 120 mm). Prior to in vivo imaging with VCT and MRI, rats are anesthetized with nitrous oxide, oxygen and isoflurane as described above.
# VCT imaging is obtained using the following parameters: tube voltage 80 kV, tube current 50 mA, scan time 51 s, rotation speed 10 s, frames per second 120, matrix 512×512, and slice thickness 0.2 mm. Image reconstructions are performed using a modified FDK (Feldkamp Davis Kress) cone beam reconstruction algorithm (kernel H80a; Afra, Erlangen, Germany).
# T2-weighted imaging is performed using a turbo spin echo sequence (orientation axial, TR 3240 ms, TE 81 ms, matrix 152×256, FOV 90×53.4 mm^2, slice thickness 1.5 mm, 3 averages, scan time 3 min 40 s). For dynamic contrast-enhanced MRI, a saturation recovery turbo flash sequence through the largest diameter of the tumor (orientation axial, TR 373 ms, TE 1.86 ms, matrix 192×144, FOV 130×97.5 mm, slice thickness 5 mm, measurements 512, averages 1, scan time 6 min 55 s) is used. After 20 s baseline, 0.1 mmol/kg Gd-DTPA (Magnevist; Bayer Schering Pharma, Berlin, Germany) is intravenously infused for a time period of 10 s.
# Unenhanced VCT images and MRI-acquired T2-weighted images are analyzed using the Medical Imaging Interaction Toolkit (MITK, Heidelberg, Germany) to determine volumes of osteolytic lesions and soft tissue components, respectively. DCE-MRI acquired data is analyzed using the Dynalab workstation (Mevis Research, Bremen, Germany) according to the two-compartment model of Brix to determine the parameters amplitude A and exchange rate constant kep, as described.^23, 30 Briefly, the injected contrast media is distributed in both compartments (intravascular space and extravascular, interstitial space). The accumulation of contrast agent in these compartments over time is characterized by the amplitude A (associated with blood volume), whereas the exchange of contrast agent between the intravascular space and the interstitial space is characterized by the exchange rate constant kep (associated with vessel permeability). […]
# [2] = system: 4T1 mouse breast tumour cells; experiment: Study 006: 4T1 survival model; type: in vivo, female BALB/c mice; conditions: 300 mg/kg daily s.c. as Composition according to Example 18; mastectomy 11 days post-inoculation
# Description: 4T1 mouse breast tumour cells were orthotopically inoculated into the fourth mammary fat pad of female BALB/c mice. Treatment started seven days post-inoculation (Day 0), when the mice were randomised, based on tumour size. Animals received treatment with either Vehicle Control (Placebo), EMD 121974 (75, 150 or 300 mg/kg as a Composition according to Example 18), or Taxol® (8 mg/kg). The Vehicle Control and EMD 121974 were administered daily by subcutaneous injection. Taxol® was administered three times weekly by intravenous injection. To assess the survival of tumor bearing animals a mastectomy was performed 11 days post-inoculation (4 days after treatment start). Animals were monitored daily for clinical symptoms and were culled if body weight loss in any animal exceeded 15% of initial weight, the animal was culled or disease progression was observed (e.g. severe breathing difficulties). Body weight measurements were made three times per week.
# [3] = system: U251 MG; experiment: U251 MG xenograft orthotopic brain model in nude rat, cilengitide with radiation; type: in vivo; conditions: for Tumor volume (mm^3) median (histologic, Alu ISH): median (range)
# Description: Synergistic Effect of the Combination of Cilengitide with Radiation in U251 MG Xenograft Orthotopic Brain Model in Nude Rat Caspase 3 Staining (Shown in FIG. 17) [table] RT is radiotherapy. Single dose. EMD is cilengitide. Single dose.
# [4] = system: SCC-15; experiment: In vitro cell viability by MTS assay, SCC-15; type: cell-based, human; conditions: 5 μg/ml, 24 h
# Description: (§1) Methods: Three non-small cell lung carcinoma lines (NSCLCs) (H460, A549 and H1299) and three head and neck squamous cell carcinoma lines (HNSCCs) (FaDu, SCC-15 and SCC-25) cell lines were used for in vitro experiments. Of these, H460 and FaDu were used for in vivo testing when grown as xenografts in nude mice. The effects of cilengitide (1-50 μg/ml, 24 h) on in vitro cell viability was determined by MTS assay and on cellular radiosensitivity by clonogenic cell survival assay after exposing the cells to graded single doses of γ-radiation with or without cilengitide (given 1 h before and continued for 23 h after irradiation). In vivo effect of cilengitide on radioresponse of xenografts was assessed by tumor growth delay. When tumor xenografts reached 7 mm in diameter cilengitide treatment (30 or 60 mg/d/5 or 10 days) was initiated followed by a single dose of 15 Gy local radiation (using ^137Cs γ-ray source), when the tumors reached 8 mm.
# [5] = system: H460; experiment: Cellular radiosensitivity by clonogenic cell survival assay, H460; type: cell-based, human; conditions: combined with γ-radiation, given 1 h before and continued 23 h after irradiation
# Description: as §1
# [6] = EMD (cilengitide) single dose + RT single dose, Control 41, RT 113, listed as EMD + RT
smiles,measurement,setting,value
"CC(C)[C@H]1C(=O)N[C@@H](CCCN=C(N)N)C(=O)NCC(=O)N[C@@H](CC(=O)O)C(=O)N[C@H](Cc2ccccc2)C(=O)N1C [Cilengitide, cyclo-(Arg-Gly-Asp-DPhe-NMeVal)]","Mean relative values of the OL (osteolytic lesion) volumes, increase compared to initial values at day 30",[1]; day 35 (control 1.9 fold),1.5 fold
same,"Mean relative STC (soft tissue component) volume, increase compared to initial values at day 30",[1]; day 35 (control 2.3 fold),2.2 fold
same,"Mean relative values of the OL (osteolytic lesion) volumes, increase compared to initial values at day 30","[1]; day 45 (control 4.5 fold, p<0.05)",2.4 fold
same,"Mean relative STC (soft tissue component) volume, increase compared to initial values at day 30","[1]; day 45 (control 10.4 fold, p<0.05)",4.9 fold
same,"Mean relative values of the OL (osteolytic lesion) volumes, increase compared to initial values at day 30","[1]; day 55 (control 9.7 fold, p<0.01)",3.5 fold
same,"Mean relative STC (soft tissue component) volume, increase compared to initial values at day 30","[1]; day 55 (control 22.5 fold, p<0.01)",6.3 fold
same,rats showing new bone formation under therapy as imaged by VCT,"[1]; treatment group, three of 12 rats, not in control animals",25%
same,survival of tumor bearing animals,[2],comparable survival as Taxol
same,Days post implant (range),"[3]; Cilengitide + RT, at 4 months",131 (≥131) days
same,"Tumor volume (mm^3) median (histologic, Alu ISH)","[3]; Cilengitide + RT, at 4 months",0.10 (0.06-0.14) mm^3
same,"Tumor volume (mm^3) median (histologic, Alu ISH)","[3]; Cilengitide alone, at time of symptoms",175 (158-208) mm^3
same,MRI finding of rat brain,"[3]; Cilengitide alone, representative animal imaged at 17d",contrast-enhancing tumor is visible
same,Days post implant (range),"[3]; Cilengitide alone, time of symptoms",40 (40-41) days
same,MRI finding of rat brain,"[3]; Cilengitide+RT, representative animal imaged at 68 days (T2-MRI)",no tumor is visible
same,Median Survival,[3]; [6],> 154 days
same,Median Survival in Days,[3]; [6],>154 vs 113 Days
same,in vitro viability,[4],71.4±2.2%
same,radiosensitivity enhancement factor,[5],1.35
